Data: patent US10131652B2, “Pyrimidinyloxy benzene derivatives as herbicides” (E. I. DU PONT DE NEMOURS AND COMPANY, priority 2014, dated 2018)
Where two headings read alike, the source gives them in different places.

Key:
Format in all cases: in vivo
[1] = test system: small-flower umbrella sedge (Cyperus difformis); experiment: Test C flooded paddy test plant response; conditions: Cyperus difformis; Flood, 250 g ai/ha; scale of 0 to 100 where 0 is no effect and 100 is complete control; 13 to 15 days; read-out: Sedge, Umbrella plant response rating
Outline: (§1)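 Greenhouse paddy assay, 13–15 days. Treatment into 3 cm floodwater over 2-leaf plants; visual 0–100 rating against controls.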

[2] = test system: rice (Oryza sativa); experiment: Test C flooded paddy test plant response; conditions: Oryza sativa; Flood, 250 g ai/ha; scale of 0 to 100 where 0 is no effect and 100 is complete control; 13 to 15 days; read-out: Rice plant response rating
Outline: as §1

[3] = test system: ducksalad (Heteranthera limosa); experiment: Test C flooded paddy test plant response; conditions: Heteranthera limosa; Flood, 250 g ai/ha; scale of 0 to 100 where 0 is no effect and 100 is complete control; 13 to 15 days; read-out: Ducksalad plant response rating
Outline: as §1

[4] = test system: barnyardgrass (Echinochloa crus-galli); experiment: Test C flooded paddy test plant response; conditions: Echinochloa crus-galli; Flood, 250 g ai/ha; scale of 0 to 100 where 0 is no effect and 100 is complete control; 13 to 15 days; read-out: Barnyardgrass plant response rating
Outline: as §1

[5] = test system: wheat (Triticum aestivum); experiment: Test B pre-/postemergence plant response; conditions: for plant injury at 500 g/ha: 500 g ai/ha
Outline: (§2)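 Steps: plant seeds in loam soil–sand mix; spray soil preemergence, and in parallel spray 2–10 cm one- to two-leaf plants postemergence; hold ~10 days in greenhouse; visually rate injury against untreated controls (0 = no effect, 100 = complete control).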

[6] = test system: pigweed (Amaranthus retroflexus); experiment: Test B pre-/postemergence plant response; conditions: for pest or weed control at 500 g/ha: 500 g ai/ha
Outline: as §2

[7] = test system: corn (Zea mays); experiment: Test B pre-/postemergence plant response; conditions: for Corn plant response rating (crop injury, 0 = no effect, 100 = complete kill) at 500 g/ha: 500 g ai/ha
Outline: as §2

[8] = test system: barnyardgrass (Echinochloa crus-galli); experiment: Test B pre-/postemergence plant response; conditions: for pest or weed control at 500 g/ha: 500 g ai/ha
Outline: as §2

[9] = test system: giant foxtail (Setaria faberii); experiment: Test B pre-/postemergence plant response; conditions: for pest or weed control at 500 g/ha: 500 g ai/ha
Outline: as §2

[10] = test system: blackgrass (Alopecurus myosuroides); experiment: Test D pre-/postemergence plant response; conditions: Alopecurus myosuroides; for pest or weed control at 16 g/ha: 16 g ai/ha; for pest or weed control at 31 g/ha: 31 g ai/ha; for pest or weed control at 62 g/ha: 62 g ai/ha; for pest or weed control at 125 g/ha: 125 g ai/ha
Outline: (§3)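 Visual rating, 0–100 scale (0 = no effect, 100 = complete control), versus untreated controls 13 to 15 days after treatment in greenhouse. Preemergence: seeds in loam/sand soil. Postemergence: 2 to 18 cm plants, 1- to 4-leaf stage, peat-based medium. Compounds formulated in non-phytotoxic solvent plus surfactant.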

[11] = test system: velvetleaf (Abutilon theophrasti); experiment: Test D pre-/postemergence plant response; conditions: Abutilon theophrasti; for pest or weed control at 16 g/ha: 16 g ai/ha; for pest or weed control at 31 g/ha: 31 g ai/ha; for pest or weed control at 62 g/ha: 62 g ai/ha; for pest or weed control at 125 g/ha: 125 g ai/ha
Outline: as §3

[12] = Preemergence, 125 g ai/ha, 0 to 100 scale (0 no effect, 100 complete control)
[13] = post-emergence, Postemergence, scale 0 to 100, 0 no effect, 100 complete control, read-out: Plant response rating, Blackgrass
[14] = pre-emergence, Preemergence, scale 0 to 100 (0 no effect, 100 complete control), read-out: Plant response rating, Blackgrass
[15] = pre-emergence, Preemergence, scale 0 to 100 (0 no effect, 100 complete control), read-out: Plant response rating, Velvetleaf

FC(F)(F)c1cc(-c2ccccc2Oc2ncc(Cl)cn2)no1 [Compound 200, 5-chloro-2-[2-[5-(trifluoromethyl)-3-isoxazolyl]phenoxy]pyrimidine]
pest or weed control at 250 g/ha [1]: 100% | plant injury at 250 g/ha [2]: 35% | pest or weed control at 250 g/ha [3]: 100% | pest or weed control at 250 g/ha [4]: 90% | Wheat plant response rating [5, 12]: 20 | plant injury at 125 g/ha ([5]; Triticum aestivum, post-emergence, 240 h, 125 g ai/ha, postemergence, 0 to 100 scale, 0 no effect, 100 complete control, read-out: Plant response rating, Wheat): 60% | plant injury at 500 g/ha ([5]; Triticum aestivum, post-emergence, 240 h, postemergence, 0 to 100 scale, 0 no effect, 100 complete control, read-out: Plant response rating, Wheat): 100% | plant injury at 500 g/ha ([5]; Triticum aestivum, pre-emergence, 240 h, Preemergence, 0 to 100 scale where 0 is no effect and 100 is complete control, read-out: Plant response rating, Wheat): 90% | pest or weed control at 125 g/ha ([6]; Amaranthus retroflexus, post-emergence, 240 h, 125 g ai/ha, postemergence, 0 to 100 scale, 0 no effect, 100 complete control, read-out: Plant response rating, Pigweed): 100% | pest or weed control at 500 g/ha ([6]; Amaranthus retroflexus, post-emergence, 240 h, postemergence, 0 to 100 scale, 0 no effect, 100 complete control, read-out: Plant response rating, Pigweed): 100% | pest or weed control at 500 g/ha ([6]; Amaranthus retroflexus, pre-emergence, 240 h, Preemergence, 0 to 100 scale where 0 is no effect and 100 is complete control, read-out: Plant response rating, Pigweed): 100% | Pigweed plant response rating [6, 12]: 100 | Corn plant response rating [7, 12]: 20 | Corn plant response rating (crop injury, 0 = no effect, 100 = complete kill) at 125 g/ha ([7]; Zea mays, post-emergence, 240 h, 125 g ai/ha, postemergence, 0 to 100 scale, 0 no effect, 100 complete control): 50% | Corn plant response rating (crop injury, 0 = no effect, 100 = complete kill) at 500 g/ha ([7]; Zea mays, post-emergence, 240 h, postemergence, 0 to 100 scale, 0 no effect, 100 complete control): 90% | Corn plant response rating (crop injury, 0 = no effect, 100 = complete kill) at 500 g/ha ([7]; Zea mays, pre-emergence, 240 h, Preemergence, 0 to 100 scale where 0 is no effect and 100 is complete control): 100% | pest or weed control at 125 g/ha ([8]; Echinochloa crus-galli, post-emergence, 240 h, 125 g ai/ha, postemergence, 0 to 100 scale, 0 no effect, 100 complete control, read-out: Plant response rating, Barnyardgrass): 90% | pest or weed control at 500 g/ha ([8]; Echinochloa crus-galli, post-emergence, 240 h, postemergence, 0 to 100 scale, 0 no effect, 100 complete control, read-out: Plant response rating, Barnyardgrass): 100% | pest or weed control at 500 g/ha ([8]; Echinochloa crus-galli, pre-emergence, 240 h, Preemergence, 0 to 100 scale where 0 is no effect and 100 is complete control, read-out: Plant response rating, Barnyardgrass): 100% | Barnyardgrass plant response rating [8, 12]: 100 | Foxtail, Giant plant response rating [9, 12]: 100 | pest or weed control at 125 g/ha ([9]; Setaria faberi, post-emergence, 240 h, 125 g ai/ha, postemergence, 0 to 100 scale, 0 no effect, 100 complete control, read-out: Plant response rating, Foxtail, Giant): 100% | pest or weed control at 500 g/ha ([9]; Setaria faberi, post-emergence, 240 h, postemergence, 0 to 100 scale, 0 no effect, 100 complete control, read-out: Plant response rating, Foxtail, Giant): 100% | pest or weed control at 500 g/ha ([9]; Setaria faberi, pre-emergence, 240 h, Preemergence, 0 to 100 scale where 0 is no effect and 100 is complete control, read-out: Plant response rating, Foxtail, Giant): 100% | pest or weed control at 16 g/ha ([10]; post-emergence, Postemergence, read-out: Plant response rating (scale 0 to 100), Blackgrass): 30% | pest or weed control at 31 g/ha ([10]; post-emergence, Postemergence, scale 0 to 100 (0 no effect, 100 complete control), read-out: Blackgrass plant response rating): 30% | pest or weed control at 62 g/ha [10, 13]: 40% | pest or weed control at 125 g/ha [10, 13]: 90% | pest or weed control at 125 g/ha ([10]; pre-emergence, Preemergence, read-out: Plant response rating (scale 0 to 100), Blackgrass): 90% | pest or weed control at 16 g/ha [10, 14]: 85% | pest or weed control at 31 g/ha [10, 14]: 90% | pest or weed control at 62 g/ha [10, 14]: 90% | pest or weed control at 16 g/ha ([11]; post-emergence, Postemergence, read-out: Plant response rating (scale 0 to 100), Velvetleaf): 30% | pest or weed control at 31 g/ha ([11]; post-emergence, Postemergence, scale 0 to 100 (0 no effect, 100 complete control), read-out: Velvetleaf plant response rating): 60% | pest or weed control at 62 g/ha ([11]; post-emergence, Postemergence, scale 0 to 100, 0 no effect, 100 complete control, read-out: Velvetleaf plant response rating): 70% | pest or weed control at 125 g/ha ([11]; post-emergence, Postemergence, scale 0 to 100, 0 no effect, 100 complete control, read-out: Plant response rating, Velvetleaf): 75% | pest or weed control at 125 g/ha ([11]; pre-emergence, Preemergence, read-out: Plant response rating (scale 0 to 100), Velvetleaf): 100% | pest or weed control at 16 g/ha [11, 15]: 100% | pest or weed control at 31 g/ha [11, 15]: 100% | pest or weed control at 62 g/ha [11, 15]: 100%
